Experimental data: ChEMBL document CHEMBL4130537, “Houttuynoid M, an Anti-HSV Active Houttuynoid from Houttuynia cordata Featuring a Bis-houttuynin Chain Tethered to a Flavonoid Core” (J Nat Prod, 2017)

Legend:
Human alphaherpesvirus 1 = experiment: Antiviral activity against HSV1/F infected in African green monkey Vero cells assessed as inhibition of plaque formation after 24 hrs by crystal violet staining-based assay; type: functional, organism-based; conditions: Human alphaherpesvirus 1, strain F
[1] = Cytotoxicity against African green monkey Vero cells assessed as decrease in cell viability after 24 hrs by CellTiter-Glo luminescent assay; type: cell-based; conditions: chlorocebus sabaeus
[2] = Selectivity index, ratio of CC50 for African green monkey Vero cells to IC50 for HSV1/F; type: toxicity; conditions: read-out: Ratio CC50/IC50

IC50 (Human alphaherpesvirus 1) [µM] | Structure (SMILES) | CC50 at 24 h [1] [µM] | selectivity ratio [2]
17.7 | CCCCCCCCCC(=O)/C=C/c1c(CCCCCCCCC)oc2c(O)ccc(-c3oc4cc(O)cc(O)c4c(=O)c3O[C@@H]3O[C@H](CO)[C@H](O)[C@H](O)[C@H]3O)c12 | > 200 | > 11.3
12.4 | CCCCCCCCCc1oc2c(O)ccc(-c3oc4cc(O)cc(O)c4c(=O)c3O[C@@H]3O[C@H](CO)[C@H](O)[C@H](O)[C@H]3O)c2c1C=O | > 200 | > 16.1
0.15 | Nc1nc2c(ncn2COCCO)c(=O)[nH]1 [ACYCLOVIR] | > 200 | > 1330
